Where two headings read alike, the source gives them in different places.
Columns and labels:
[1] = Cytotoxicity in NIH/3T3 cell line (MTT assay); type: cell-based; settings: mouse, read-out: IC50 (µM) ± SD, cytotoxicity
Procedure: Before each cytotoxicity assay using this cell line, cells were seeded in untreated 96-well flat-bottom microtiter plates, following a 4-hour incubation period in a humidified atmosphere (5% CO2, 95% air) at 37 °C [47]. […] Prior to the assay, the cells were seeded for 4 h using 1 × 10^4 cells/well. […] The plates were incubated for 24 h, after which a solution of MTT in PBS was added to each well and incubated for another 4 h. After this, 100 μL of SDS (10% in a 0.01 M HCl solution) was added to each well and incubated overnight at 37 °C. Doxorubicin was used as a positive control. Cell growth was determined in quadruplicate by measuring OD at λ = 540 nm (reference 630 nm) in a Multiscan EX ELISA reader (Thermo Labsystems, Cheshire, WA, USA). […] (2) 100−ODsample−ODmedium control/ODcell control−ODmedium control×100 […]

P-glycoprotein (P-gp) = biological target: T1, P-glycoprotein (P-gp) (Homo sapiens, UniProt P08183); test: P-gp transport activity, RHO 123 accumulation in Caco-2 cells in presence of compounds (90 min); type: cell-based; settings: 20 µM only during the 90 min incubation with RHO 123
T1 construct: P-glycoprotein (P-gp) activity assessed by fluorescence spectroscopy in Caco-2 cells; endogenous in cells; host or cells: Caco-2 cells (ECACC)
Procedure: Concerning the second experimental approach used to evaluate the effects of the compounds in P-gp activity, Caco-2 cells were exposed to thioxanthone derivatives (20 µM) only during the 90 min of incubation with the fluorescent substrate (RHO 123, 10 µM). This experimental approach aims to evaluate the potential immediate effects of thioxanthone derivatives on P-gp activity as a result of a direct inhibition or activation of the protein, i.e., not to change the protein expression. […] In contrast, compounds 12 and 13 caused a significant and immediate decrease in P-gp activity (to 82 and 85%, respectively), when compared to control cells (0 µM).
The effect of the tested compounds on P-gp activity was evaluated using rhodamine 123 (RHO 123) as a P-gp fluorescent substrate, and ZOS as a specific third-generation P-gp inhibitor. Indeed, several studies report the use of RHO 123 accumulation/efflux assays for the direct assessment of P-gp activity through the quantification of the intracellular fluorescence of the P-gp substrate. Caco-2 cells were seeded in 24-well plates at a density of 60,000 cells/cm^2 and, three days after seeding, and submitted to two different protocols of RHO 123 accumulation: 1) RHO 123 accumulation in cells pre-exposed to the compounds (20 µM) for 24 h; 2) RHO 123 accumulation in the presence of the tested compounds (20 µM) for 90 min, as previously described.
On the other hand, in the second protocol, the cells were exposed to the tested compounds 30 min prior to addition of the P-gp fluorescent substrate, RHO 123, and remained in contact with the cells only during the substrate accumulation period, thus aiming to detect immediate effects of the tested compounds on P-gp activity as a result of a direct P-gp activation or inhibition. For that purpose, three days after seeding, the cell culture medium was removed, and the cells submitted to the following procedures:
RHO 123 accumulation under normal conditions (NA): pre-exposure to compounds (20 μM), prepared in HBSS (+/+), for 30 min at 37 °C, followed by incubation with RHO 123 (5 μM) for 90 min, at 37 °C, in a humidified 5% CO2 and 95% O2 air atmosphere. Control cells were only exposed to RHO 123.
RHO 123 accumulation in the presence of the P-gp inhibitor (IA): simultaneous pre-exposure to compounds (20 μM) and ZOS (5 μM), both prepared in HBSS (+/+), for 30 min at 37 °C, followed by incubation with RHO 123 (5 μM) for 90 min, at 37 °C, in a humidified 5% CO2 and 95% O2 air atmosphere. Control cells were only exposed to ZOS and RHO 123.
After the 90 min of incubation with RHO 123, the cells were washed twice with HBSS (-/-) and lysed with 1% Triton™ X100, for 30 min, in the dark, at room temperature. RHO 123 intracellular fluorescence was then measured at excitation/emission wavelengths of 485/528 nm, in a multi-well plate reader (PowerWave-X, BioTek Instruments, VT, USA) and expressed as fluorescence intensity (FI). The ratio between the FI after inhibited RHO 123 accumulation (IA) and the FI of non-inhibited RHO 123 accumulation (NA) was the parameter used for comparison, and the results were expressed as a percentage of control cells (Equation (3)). Given the high autofluorescence of several of the tested compounds at the conditions used to measure RHO 123 fluorescence, only compounds 9, 10, 12, 13, and 14 were able to be tested for their potential immediate effect on P-gp activity. Four independent experiments were performed, in triplicate.

Caco-2 cells = test: Cytotoxicity in Caco-2 cells, neutral red (NR) uptake assay; type: cell-based, human; settings: 24 h after exposure
Procedure: Caco-2 cells were routinely cultured in 75 cm^2 flasks using DMEM with 4.5 g/L glucose supplemented with 10% FBS, 1% NEAA and 1% antibiotic. Cells were maintained at 37 °C, in a 5% CO2 and 95% air atmosphere, and the cell culture medium was changed every 2−3 days. Cultures were passaged weekly by trypsinization (0.25% trypsin/1 mM EDTA). In all experiments, the cells were seeded at a density of 60,000 cells/cm^2 and used three days after seeding, when confluence was reached. The cells used in all experiments were taken between the 55th and 64th passages.
The compounds’ (0−20 μM) cytotoxicity was evaluated by the neutral red (NR) uptake and Sulforhodamine B (SRB) binding assays, 24 h after exposure. Caco-2 cells were seeded onto 96-well plates at a density of 60,000 cells/cm^2 and exposed, after reaching confluence (three days after seeding), to the compounds (0–20 μM), in a fresh cell culture medium. Triton™ X-100 (0.1%) was used as a positive control.
The NR assay is based on the ability of viable cells to incorporate and bind the supravital dye NR into the lysosomes, thus providing a quantitative estimation of the number of viable cells in a culture. Twenty-four hours after exposure to the compounds, the cell culture medium was removed, followed by the addition of fresh cell culture medium containing 50 μg/mL NR, and incubation at 37 °C in a humidified 5% CO2 and 95% air atmosphere, for 90 min. After this incubation period, the cell culture medium was removed, the dye absorbed only by viable cells extracted with absolute ethyl alcohol/distilled water (1:1) with 5% acetic acid, and the absorbance measured at 540 nm in a multiwell plate reader (PowerWaveX BioTek Instruments, VT, USA). The percentage of NR uptake relatively to that of the control cells (0 µM) was used as the cytotoxicity measure. Five independent experiments were performed, in triplicate.

T1 sequence (P08183 whole entry): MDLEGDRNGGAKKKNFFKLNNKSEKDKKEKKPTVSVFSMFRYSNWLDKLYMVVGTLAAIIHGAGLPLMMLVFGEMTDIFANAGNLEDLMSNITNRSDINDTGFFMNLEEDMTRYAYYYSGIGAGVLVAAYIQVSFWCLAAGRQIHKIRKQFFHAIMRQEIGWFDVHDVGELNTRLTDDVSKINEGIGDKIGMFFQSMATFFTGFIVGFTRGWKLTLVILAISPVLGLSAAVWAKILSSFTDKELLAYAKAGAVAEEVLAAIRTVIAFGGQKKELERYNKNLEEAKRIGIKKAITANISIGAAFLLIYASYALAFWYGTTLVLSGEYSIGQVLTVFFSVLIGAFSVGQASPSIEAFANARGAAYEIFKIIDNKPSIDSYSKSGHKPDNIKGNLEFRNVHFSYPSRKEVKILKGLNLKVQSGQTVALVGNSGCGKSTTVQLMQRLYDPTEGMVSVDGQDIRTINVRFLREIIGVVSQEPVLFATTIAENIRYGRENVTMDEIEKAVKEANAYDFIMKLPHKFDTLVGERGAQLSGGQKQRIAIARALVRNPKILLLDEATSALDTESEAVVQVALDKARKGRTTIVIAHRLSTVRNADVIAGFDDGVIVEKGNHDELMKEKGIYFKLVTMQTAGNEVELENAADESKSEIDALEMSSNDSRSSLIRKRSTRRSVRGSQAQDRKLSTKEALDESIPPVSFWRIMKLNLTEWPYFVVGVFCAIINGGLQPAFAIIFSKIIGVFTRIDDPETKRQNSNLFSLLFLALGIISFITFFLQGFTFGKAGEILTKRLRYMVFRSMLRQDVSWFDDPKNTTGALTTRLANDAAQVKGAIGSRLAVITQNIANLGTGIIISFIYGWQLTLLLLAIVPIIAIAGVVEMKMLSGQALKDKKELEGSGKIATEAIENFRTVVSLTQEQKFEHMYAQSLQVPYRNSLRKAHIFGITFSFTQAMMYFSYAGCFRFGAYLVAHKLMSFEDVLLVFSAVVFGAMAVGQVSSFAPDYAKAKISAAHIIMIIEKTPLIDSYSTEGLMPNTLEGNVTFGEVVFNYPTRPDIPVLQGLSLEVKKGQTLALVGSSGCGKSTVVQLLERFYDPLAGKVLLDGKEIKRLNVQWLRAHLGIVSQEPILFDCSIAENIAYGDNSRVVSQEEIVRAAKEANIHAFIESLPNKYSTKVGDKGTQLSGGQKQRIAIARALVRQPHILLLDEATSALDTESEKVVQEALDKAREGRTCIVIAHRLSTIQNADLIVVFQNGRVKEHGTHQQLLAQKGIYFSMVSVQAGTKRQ

Row | SMILES | IC50 at 24 h ([1]; NIH/3T3 mouse fibroblast cells) | P-gp activity (control cells 100%) (P-glycoprotein (P-gp)) | NR uptake (relative to control cells) (Caco-2 cells; 20 µM) | further results
1 | CCCOc1ccc(N2CCCCC2)c2c(=O)c3ccccc3sc12 [Compound 3] |  |  |  | IC50 at 24 h [1]: > 100 µM
2 | CCCOc1ccc(Nc2nc(C)cc(C)n2)c2c(=O)c3ccccc3sc12 [Compound 8, 1-[(4,6-Dimethylpyrimidin-2-yl)amino]-4-propoxy-9H-thioxanthen-9-one] | > 100 µM |  |  | 
3 | CCCOc1ccc(N2CCNC(=O)C2)c2c(=O)c3ccccc3sc12 [Compound 9, 4-(9-Oxo-4-propoxy-9H-thioxanthen-1-yl)piperazin-2-one] |  | no significant differences |  | 
4 | CCCOc1ccc(NCCO)c2c(=O)c3ccccc3sc12 [Compound 10, 1-[(2-Hydroxyethyl)amino]-4-propoxy-9H-thioxanthen-9-one] |  | no significant differences |  | 
5 | CCCOc1ccc(NS(=O)(=O)c2ccc(C(=O)O)cc2)c2c(=O)c3ccccc3sc12 [Compound 12, 4-[N-(9-Oxo-4-propoxy-9H-thioxanthen-1-yl)sulfamoyl]benzoic acid] | 64.5 ± 4.54 µM | 82% |  | 
6 | CCCOc1ccc(NS(=O)(=O)c2ccc(N)cc2)c2c(=O)c3ccccc3sc12 [Compound 13, 4-Amino-N-(9-oxo-4-propoxy-9H-thioxanthen-1-yl)benzenesulfonamide] | > 100 µM | 85% | no significant effect | NR uptake (relative to control cells) (Caco-2 cells; 10 µM): 95.5%
7 | CCCOc1ccc(Br)c2c(=O)c3ccccc3sc12 [Compound 14, 1-Bromo-4-propoxy-9H-thioxanthen-9-one] |  | 116% |  | 
8 | CCCOc1ccc2ncnc3c2c1Sc1ccccc1-3 [Compound 15] |  |  | 92.2% | 
9 | CCCOc1ccc2nc(N)nc3c2c1Sc1ccccc1-3 [Compound 16] |  |  | 94.1% | 
10 | CCCOc1ccc2nc(NCc3ccccc3Cl)nc3c2c1Sc1ccccc1-3 [Compound 17] | > 100 µM |  | 95.5% | 

— publication PMC8232621, “Antimicrobial Activity of a Library of Thioxanthones and Their Potential as Efflux Pump Inhibitors” (Pharmaceuticals, 2021)
